Laboratory results: patent US6653486B2, “Spiroorthocarbonates containing epoxy groups” (Curators of the University of Missouri, priority 1999, dated 2003)

Columns and labels:
[1] = Vinyl ether homopolymerization PDSC with and without EDMAB (Table 2)
Excerpt: For the experiments reported in Table 2, the photopolymerization of various vinyl ethers with and without the use of an electron donor to promote the reaction are reported. Data showing runs where EDMAB was used to promote the reaction are shown in parentheses after the numbers corresponding to runs without EDMAB.

Row | Molecule | Rate Constant k ([1]; with EDMAB) | Rate Constant k ([1]; without EDMAB) | melting point
1 | C=COCCCCO [BDVE, butanediol vinyl ether] | 3.6 min⁻¹ | 1.1 min⁻¹ | 
2 | C=COCC1CCC(COC=C)CC1 (stereo not shown) [CHDMDVE, 1,4-cyclohexanedimethanol divinyl ether] | 2.8 min⁻¹ | 0.5 min⁻¹ | 
3 | CCC(=O)OCC1(CC)COC2(OC1)OCC(CC)(COC(=O)CC)CO2 (stereo not shown) [DEDPM, 3,9-Diethyl-3,9-dipropionyloxymethyl-1,5,7,11-tetraoxaspiro[5.5]undecane] |  |  | 68.1 °C
4 | C=COCCOCCOC=C [DEGDVE, di(ethylene glycol)divinyl ether] | 1.4 min⁻¹ | 1.3 min⁻¹ | 
5 | FC(F)(F)C1CCOC2(OCCC(C(F)(F)F)O2)O1 (stereo not shown) [DTFM, 2,8-Ditrifluoromethyl-1,5,7,11-tetraoxaspiro[5.5]undecane] |  |  | 122.4 °C
6 | C=COCCOC=C [EGDVE, ethylene glycol divinyl ether] | 10.6 min⁻¹ | 3.6 min⁻¹ | 
7 | C=COCC1CO1 (stereo not shown) [GVE, glycidyl vinyl ether] | 0.8 min⁻¹ | 1.1 min⁻¹ | 
8 | C=COCCOCCOCCOC=C [TEGDVE, tri(ethylene glycol)divinyl ether] | 11.1 min⁻¹ | 2.1 min⁻¹ | 
9 | hexanediol divinyl ether [HDDVE] | 15.5 min⁻¹ | 1.4 min⁻¹ | 
